# Reference: paper PMC7694207, “Functional Characterization of the N-Acetylmuramyl-L-Alanine Amidase, Ami1, from Mycobacterium abscessus” (Cells, 2020)
# Non-standard residues stand in square brackets, D forms with d. Residues, ends and D or L forms follow the SMILES beside them.
# Assays:
# Ami1Mab [1] = molecular target: T1, Ami1Mab (Mycobacteroides abscessus, UniProt B1MFL7); test: TLC-based muramyl-dipeptide hydrolysis assay; type: biochemical; settings: substrate MDP; PBS; 37 °C; compound numbering as in Results
# T1 construct: gene MAB_0318c; first 40 residues (signal peptide) removed; pET151 N-terminal tag cut by TEV; E. coli BL21(DE3) pRARE2; zinc enzyme
# Ami1Mab [2] = molecular target: T1, Ami1Mab; test: TLC hydrolysis assay, ninhydrin; type: biochemical; settings: PBS, 37 °C, 30 min; Zn2+-dependent
# Ami1Mtb = molecular target: T2, Ami1Mtb (Mycobacterium tuberculosis, UniProt I6Y4D2); type: biochemical
# T2 construct: gene Rv3717
# Ami1Mab [3] = molecular target: T1, Ami1Mab; test: TLC-based muramyl-dipeptide hydrolysis assay; type: biochemical; settings: substrate MDP; PBS; 37 °C
# Ami1Mab [4] = molecular target: T1, Ami1Mab; test: X-ray co-crystal structure, […] Å; type: binding; settings: co-crystallized with 5 mM dipeptide; active site near Zn2+
# Ami1Mab [5] = molecular target: T1, Ami1Mab; test: TLC-based muramyl-dipeptide hydrolysis assay; type: biochemical; settings: substrate MDP; PBS; 37 °C; compound numbering as in Results; remark: listed apart in the source
# T1 sequence (B1MFL7 entry or part of it): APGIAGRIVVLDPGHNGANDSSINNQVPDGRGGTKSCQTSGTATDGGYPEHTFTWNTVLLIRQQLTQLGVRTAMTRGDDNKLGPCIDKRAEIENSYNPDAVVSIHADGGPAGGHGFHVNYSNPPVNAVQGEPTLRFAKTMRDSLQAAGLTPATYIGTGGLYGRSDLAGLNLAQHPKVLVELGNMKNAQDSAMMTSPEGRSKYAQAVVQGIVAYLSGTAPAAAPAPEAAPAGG
# T2 sequence (I6Y4D2 whole entry, looked up): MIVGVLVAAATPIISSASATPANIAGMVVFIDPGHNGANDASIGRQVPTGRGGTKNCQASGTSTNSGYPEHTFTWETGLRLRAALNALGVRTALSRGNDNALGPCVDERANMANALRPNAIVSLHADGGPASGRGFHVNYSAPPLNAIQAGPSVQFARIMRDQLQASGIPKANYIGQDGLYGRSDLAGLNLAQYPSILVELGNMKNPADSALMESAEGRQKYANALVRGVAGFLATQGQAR
compound,measurement,setting,value
"Nc1ccccc1-c1nn[nH]n1 [compound 2, 2-(1H-1,2,3,4-tetrazol-5-yl)aniline]",inhibitory activity starting at,Ami1Mab [1],800 µM
CC(=O)N[C@H]1C(O)O[C@H](CO)[C@@H](O)[C@@H]1O[C@H](C)C(=O)N[C@@H](C)C(=O)N[C@H](CCC(=O)O)C(N)=O (stereo partly drawn) [muramyl-dipeptide],"TLC hydrolysis assay, ninhydrin",Ami1Mab [2],MDP was rapidly hydrolyzed by Ami1Mab
same,"TLC hydrolysis assay, ninhydrin",Ami1Mtb,Activity of both Ami1Mab and Ami1Mtb is inhibited after incubation with EDTA
"O=C(O)c1coc2ccnc(Cl)c12 [compound 1, 4-chlorofuro [3,2-c]pyridine-3-carboxylic acid]","inhibitory effect, starting at",Ami1Mab [3],150 to 200 µM
C[C@H](N)C(=O)N[C@H](CCC(=O)O)C(N)=O [L-Ala-D-IsoGln] (H-Ala-[dE]-NH2),"X-ray co-crystal structure, 1.7 Å",Ami1Mab [4],The co-crystal structure of Ami1Mab bound to L-Ala-D-IsoGln was also solved
"O=C(O)c1ccnc(Cl)c1C(=O)O [compound 3, 2-chloropyridine-3,4-dicarboxylic acid]","inhibitory effect, starting between",Ami1Mab [5],250 to 500 µM
